Measured values taken from publication PMC8007111, “Novel Potent Muscarinic Receptor Antagonists: Investigation on the Nature of Lipophilic Substituents in the 5- and/or 6-Positions of the 1,4-Dioxane Nucleus” (Journal of Medicinal Chemistry, 2020).

Assays:
[1] = system: MSCs from mouse bone marrow; assay: Carbachol-induced MSC viability (MTS assay); format: cell-based; conditions: pre-incubation 1 h, then carbachol 10^–10 M for 24 h
Description: (§1) It is well established that bone marrow MSC behavior is influenced by a variety of signaling systems. In context, cholinergic intramural stimuli and, in particular, muscarinic signals orchestrate MSCs viability and commitment.[11],[12] Considering also the pluripotent MSC nature and their contribution to bone, blood, and systemic homeostasis,[53] viability studies on MSCs were performed to determine the functional profile of 3b, the most interesting compound in this series. […] Successively, the efficacy of 3b in contrasting cell viability induced by the well-known mAChR agonist carbachol was evaluated. […] Further research on the intracellular mechanistic outcomes of 3b on MSCs remains mandatory.
The in vitro studies were performed by using bone marrow MSCs as a model. Male BALB/c mice (Harlan Italy SrL, Milano, Italy) (8 weeks old; body weight ∼24.5 g; n = 4) were kept in a laminar-flow cage in a standardized environmental condition. Food (Harlan, Italy), and water was supplied ad libitum. Mice were sacrificed by CO2 narcosis and cervical dislocation in accordance with the recommendations of the Italian Ethical Committee and under the supervision of authorized investigators. Long bones (femurs and tibiae) were dissected and cleaned from skin, muscle, and connective tissues as much as possible. Bones were placed in a culture dish containing sterile PBS. Then, the bone cavity was flushed in DMEM with a syringe in order to collect the bone marrow cells into a 50 mL sterile tube. […] After 2 weeks of initiating culture, cells were washed with PBS, detached by trypsinization, counted, and plated at the density of 5,000 cells/well in 96 culture plates (Costar Corp., Milano, Italy) in DMEM containing 10% HIFCS, penicillin, and streptomycin.
(§2) MSCs were treated with compound 3b (from 10^–4 to 10^–10 M) for 24 h. […] At the end of each procedure, the MSCs viability was measured by MTS assay. […] The quantity of the formazan product was directly proportional to the number of living cells in culture. The colored formazan was measured by reading the absorbance at 490 nm using a […] plate reader.

[2] = system: MSCs from mouse bone marrow; assay: MSC viability (MTS assay), dose-response; format: cell-based; conditions: 24 h
Description: as §1
The in vitro studies were performed by using bone marrow MSCs as a model. […] After 2 weeks of initiating culture, cells were washed with PBS, detached by trypsinization, counted, and plated at the density of 5,000 cells/well in 96 culture plates (Costar Corp., Milano, Italy) in DMEM containing 10% HIFCS, penicillin, and streptomycin.
as §2

hM2 mAChR = target: T1, hM2 mAChR (Homo sapiens, UniProt P08172); assay: [3H]NMS inhibition radioligand binding, hM2 in CHO-K1 cell membranes; conditions: [3H]NMS, CHO-K1 cell membranes; mean ± S.E.M.
T1 construct: expressed in transfected cells; host or cells: CHO-K1 (membrane preparation)
T1 sequence (P08172 1-466): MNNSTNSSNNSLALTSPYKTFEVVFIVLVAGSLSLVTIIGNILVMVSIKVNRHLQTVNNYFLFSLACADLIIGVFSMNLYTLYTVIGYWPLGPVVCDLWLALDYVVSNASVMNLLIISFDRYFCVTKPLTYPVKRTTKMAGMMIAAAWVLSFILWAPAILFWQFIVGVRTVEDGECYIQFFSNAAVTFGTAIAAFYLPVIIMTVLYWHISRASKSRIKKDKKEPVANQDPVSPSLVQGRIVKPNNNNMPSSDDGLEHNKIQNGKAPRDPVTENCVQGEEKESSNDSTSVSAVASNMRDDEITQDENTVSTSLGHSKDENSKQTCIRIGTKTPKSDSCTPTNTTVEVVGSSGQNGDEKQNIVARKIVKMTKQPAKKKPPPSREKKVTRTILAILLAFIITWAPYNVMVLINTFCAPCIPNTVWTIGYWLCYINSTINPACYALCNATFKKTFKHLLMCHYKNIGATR

hM3 mAChR = target: T2, hM3 mAChR (Homo sapiens, UniProt P20309); assay: [3H]NMS inhibition radioligand binding, hM3 in CHO-K1 cell membranes
T2 construct: expressed in transfected cells; host or cells: CHO-K1 (membrane preparation)
T2 sequence (P20309 whole entry): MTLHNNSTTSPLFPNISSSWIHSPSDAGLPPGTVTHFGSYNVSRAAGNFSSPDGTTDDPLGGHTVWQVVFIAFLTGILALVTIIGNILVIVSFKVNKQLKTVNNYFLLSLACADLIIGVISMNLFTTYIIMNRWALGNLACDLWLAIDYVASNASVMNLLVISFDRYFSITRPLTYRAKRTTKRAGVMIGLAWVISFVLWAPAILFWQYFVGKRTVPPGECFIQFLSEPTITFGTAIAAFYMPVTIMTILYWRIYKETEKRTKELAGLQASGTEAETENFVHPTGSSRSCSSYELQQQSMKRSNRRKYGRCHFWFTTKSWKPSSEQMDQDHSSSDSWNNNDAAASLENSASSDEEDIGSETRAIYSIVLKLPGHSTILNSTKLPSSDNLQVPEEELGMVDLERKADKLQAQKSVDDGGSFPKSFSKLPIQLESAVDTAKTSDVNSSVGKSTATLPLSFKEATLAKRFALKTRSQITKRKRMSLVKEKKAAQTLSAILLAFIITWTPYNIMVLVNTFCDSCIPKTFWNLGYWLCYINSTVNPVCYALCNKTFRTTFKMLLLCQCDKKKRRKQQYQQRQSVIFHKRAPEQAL

For `C[N+](C)(C)C[C@@H]1COC[C@](c2ccccc2)(C2CCCCC2)O1.[I-]` (relative stereo) [3b, 1-((2R*,6R*)-6-Cyclohexyl-6-phenyl-1,4-dioxan-2-yl)-N,N,N-trimethylmethanaminium Iodide], the “effect on carbachol-induced MSC viability” value [1] was “able to contrast the increase of carbachol-induced MSC viability”, the “effect on MSCs viability” value ([2]; high concentration (10^–4 M)) was “down-regulate MSCs viability” and the “effect on MSCs viability” value ([2]; low concentration (10^–10 M)) was “increased cell viability”. The “pKi hM2” value (hM2 mAChR) was 7.91 ± 0.13, the “pKi hM3” value (hM3 mAChR; [3H]NMS, CHO-K1 cell membranes, mean ± S.E.M.) was 9.07 ± 0.03 and the M3/M2 selectivity ratio (hM3 mAChR; from binding affinities at hM3 and hM2) was 14.5.
